In US20030153618A1, “Treatment and prevention of herpes simplex infections” (priority 1999, published 2003):
Several values for one entry are separate records, joined by “and”; a condition that tells them apart may be missing. Identical values can stand only once.

System: HSV, Type II
Assay: Direct plaque-forming unit (PFU) count in BSC cells in defined media with set lysine (or derivative):arginine ratio
Type: cell-based
Conditions: for Plaque Forming Unit Count, Average: average of experiments 1-6; for P.F.U. Count: average of three tests
Procedure: Absorbed virons were absorbed in susceptible cells in chemically defined media and the number of plaques made were counted. (See Davis, B. D., et al., Microbiology, 2nd Ed., Harper & Row, 1973, Part V, and sources cited therein for procedural details and discussion of the plaque method.)
The cell line chosen was green monkey kidney cells (BSC) that have been passed greater than 41 times. […] The virons were added to a confluent lawn of BSC cells and allowed to absorb at 25° C. for one hour. The unabsorbed virons and the media were removed by washing three times in PBS. […] The control media contained a lysine/arginine ratio of 1:1. The plaques were counted when easily readable. Flasks are done in triplicate.

Row | Structure (SMILES) | Plaque Forming Unit Count, Average (Lysine:Arginine Ratio 1:1 (control media)) | Plaque Forming Unit Count (Lysine:Arginine Ratio 1:1 (control media), single experiment) | Plaque Forming Unit Count, Average (Lysine:Arginine Ratio 500:1) | P.F.U. Count (Compound Ratio to Arginine 10:1) | P.F.U. Count (Compound Ratio to Arginine 100:1)
1 | NCCCC[C@H](N)C(=O)O [Lysine, lysine, reference compound] | 738 | 814 and 594 and 631 and 621 and 936 and 781 | 12 |  | 
2 | CC(N)CCCCC(N)C(=O)O (centres unmarked) [drawing 15] |  |  |  | <5 | <5
